Measurements taken from PMC3699461, “Ground State Destabilization by Anionic Nucleophiles Contributes to the Activity of Phosphoryl Transfer Enzymes” (PLoS Biology, 2013).
Where “and” joins values, the source holds several entries; their conditions need not be identical. Identical values can stand only once. Like-named read-outs stand apart in the source and are kept apart here.

Tests used:
[1] = cited from earlier work
[2] = biological target: S102G AP (Escherichia coli, UniProt P00634, S124G); conditions: for trianion versus dianion differential affinity: S102G AP, Table 2
Sequence of S102G AP (P00634 23-471 S124G): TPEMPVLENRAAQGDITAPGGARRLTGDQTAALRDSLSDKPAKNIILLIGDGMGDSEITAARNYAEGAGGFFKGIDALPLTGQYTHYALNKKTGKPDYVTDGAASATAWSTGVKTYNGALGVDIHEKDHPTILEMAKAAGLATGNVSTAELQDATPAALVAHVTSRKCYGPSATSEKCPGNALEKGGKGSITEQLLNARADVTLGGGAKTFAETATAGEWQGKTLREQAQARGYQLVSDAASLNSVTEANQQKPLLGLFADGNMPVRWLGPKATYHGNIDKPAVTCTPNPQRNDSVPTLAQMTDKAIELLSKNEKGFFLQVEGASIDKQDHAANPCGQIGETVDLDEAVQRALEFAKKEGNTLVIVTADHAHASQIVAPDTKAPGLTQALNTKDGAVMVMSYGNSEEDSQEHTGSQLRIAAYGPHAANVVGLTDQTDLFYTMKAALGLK
Text: (§1) The retentate is expected to contain both free and bound ^32Pi. […] Scintillation counting of both the filtrate and retentate was used to measure the concentrations of free and bound ^32Pi at the various AP concentrations, and the fraction ^32Pi bound dependence on the AP concentration was used to determine dissociation constants using a modified binding equation, f bound = (C)×([AP]/([AP]+K [drawing 148] ))+(1–C), where C allows for background levels of apparent binding in the absence of protein.
(§2) To measure the uptake of ^32Pi by the AP sample, the fraction of ^32Pi bound was measured over time starting just after the addition of ^32Pi to the AP samples.

[3] = biological target: T1, S102G/R166S AP (Escherichia coli, UniProt P00634, R188S/S124G); conditions: Table 2
T1 sequence (P00634 23-471 S124G/R188S): as the sequence (P00634 23-471 S124G) above, with R166S counted along it
Text: (§3) The following buffers were used over the indicated pH ranges: NaAcetate (4.5–5.5), NaMES (5.5), NaMaleate (6.0–6.5), Tris•HCl (7.0–7.5), NaMOPS (7.0–8.0), NaCHES (8.5–9.0), and NaCAPS (10–10.5).
as §1, §2

[4] = biological target: WT Stp1 (Schizosaccharomyces pombe, UniProt P41893); conditions: pH 6.0, protein up to 500 µM
Sequence of WT Stp1 (P41893 whole entry): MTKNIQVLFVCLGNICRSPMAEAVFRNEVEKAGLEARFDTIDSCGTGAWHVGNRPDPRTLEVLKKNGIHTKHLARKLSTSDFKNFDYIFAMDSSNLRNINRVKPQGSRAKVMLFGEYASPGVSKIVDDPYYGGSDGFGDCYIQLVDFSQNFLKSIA
Text: The buffer conditions, pH, and temperature were the same as those for the WT Stp1 kinetic inhibition assays (Figure S14A).
(EPS) Click here for additional data file.

[5] = biological target: AP with mutation of Arg166; conditions: read-out: Pi binding constant of Arg166 mutants; pH 8.0; cited from earlier work
[6] = biological target: T2, WT AP (Escherichia coli, UniProt P00634); conditions: 0.1–10 µM WT AP, standard buffer
T2 sequence (P00634 22-471): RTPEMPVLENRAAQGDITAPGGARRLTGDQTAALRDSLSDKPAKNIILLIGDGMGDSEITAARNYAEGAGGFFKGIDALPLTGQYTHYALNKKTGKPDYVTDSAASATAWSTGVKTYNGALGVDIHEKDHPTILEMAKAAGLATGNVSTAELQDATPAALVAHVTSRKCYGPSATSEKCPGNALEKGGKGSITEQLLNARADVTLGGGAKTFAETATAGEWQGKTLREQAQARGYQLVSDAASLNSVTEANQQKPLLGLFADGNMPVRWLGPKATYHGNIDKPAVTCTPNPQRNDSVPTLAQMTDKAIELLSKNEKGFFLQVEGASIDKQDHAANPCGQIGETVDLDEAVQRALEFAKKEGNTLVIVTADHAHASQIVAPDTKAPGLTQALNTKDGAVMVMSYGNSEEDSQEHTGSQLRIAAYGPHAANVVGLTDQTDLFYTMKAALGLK
Text: as §3, §1, §2

[7] = biological target: R166S AP (Escherichia coli, UniProt P00634, R188S); conditions: fit of Figure 4B, two-state model
Sequence of R166S AP (P00634 23-471 R188S): as the sequence (P00634 23-471 S124G) above, with G102S, R166S counted along it
Protocol: The tungstate affinity for R166S AP was determined by inhibition of pNPP hydrolysis as was done previously with WT AP [20], but under the standard buffer conditions used in this work. A range of tungstate concentrations was used from at least 5-fold below and above the inhibition constant at each pH.

[8] = ionic strength I = 0.1 for the value 6.9; cited from earlier work
[9] = biological target: T2, WT AP; conditions: cited from earlier work
[10] = biological target: T2, WT AP
Protocol: (§4) After this first incubation, trace ^32Pi was added and the sample was incubated further to allow ^32Pi binding to complete.
A competition-binding assay at pH 8.0 for WT AP (see Materials and Methods for assay details) under the standard buffer conditions.

[11] = biological target: T1, S102G/R166S AP; conditions: fit of Figure 4B, two-state model
Protocol: as §4

Nc1ncnc2c1ncn2[C@@H]1O[C@H](COP(=O)(O)OP(=O)(O)OP(=O)(O)O)[C@@H](O)[C@H]1O [ATP]
kuncat, uncatalyzed hydrolysis ([1]; 25 °C, 44 of the supplement): ~ 5×10^-11 M^-1s^-1

Nc1nc2c(ncn2[C@@H]2O[C@H](COP(=O)(O)OP(=O)(O)OP(=O)(O)O)[C@@H](O)[C@H]2O)c(=O)[nH]1 [GTP]
kuncat, uncatalyzed hydrolysis ([1]; 25 °C, 44 of the supplement): ~ 5×10^-11 M^-1s^-1

O=P(O)(O)O [PO4^3-]
trianion versus dianion differential affinity [2]: 10^7 fold | trianion versus dianion differential affinity ([2]; listed as PO): ~ 10^7 fold | destabilization of Pi trianion binding by the Ser102 alkoxide ([2]; WT AP versus S102G AP): ≥ 10^8 fold | trianion versus dianion differential affinity [3]: 4.3×10^5 fold

O=P(O)(O)O [Pi, inorganic phosphate]
Pi binding in the equilibrium-binding assay [4]: No significant Pi binding | Ki [5]: 460 µM and 640 µM | observed 32Pi uptake rate constant kobs [6]: ≥ 0.03 s⁻¹

COP(=O)(O)O [methyl phosphate dianion, methyl phosphate]
kuncat, uncatalyzed hydrolysis ([1]; 25 °C, 44 of the supplement): ~ 4×10^-22 M^-1s^-1 | kuncat, uncatalyzed hydrolysis [1]: ~4e-22 M⁻¹ s⁻¹

[O]=[W](=[O])([O-])[O-] [tungstate]
pH-independent dissociation constant for tungstate binding [7]: 170±25 µM | solution pKa [8]: ~4 | pH-independent dissociation constant for tungstate dianion binding ([9]; kinetic inhibition, solid line, data from ref 20): 0.57±0.11 µM | Kd ([9]; read-out: dissociation constant for tungstate binding, pH 8.0): 1.1 µM | pH-independent dissociation constant for tungstate dianion binding ([10]; equilibrium-binding assay via competition with 32Pi, dashed line): 2.06±0.48 µM | Kd ([10]; read-out: dissociation constant for tungstate binding, pH 8.0, standard buffer): 0.9 ± 0.2 µM | pH-independent dissociation constant for tungstate binding [11]: 890±90 µM
